Reference: patent publication US12522601B2, “1,3,4-oxadiazole derivative compounds as histone deacetylase 6 inhibitor, and the pharmaceutical composition comprising the same” (CHONG KUN DANG PHARMACEUTICAL CORP., priority 2020, dated 2026)

Columns and labels:
human recombinant HDAC1 = target: T1, human recombinant HDAC1 (Homo sapiens, UniProt Q13547); experiment: In vitro HDAC enzyme activity inhibition assay, HDAC1 (HDAC Fluorimetric Drug Discovery Kit); assay type: biochemical; conditions: human recombinant HDAC1, Fluor de Lys-SIRT1 substrate 10 μM, 30° C. for 60 minutes
T1 construct: purchased Enzo Life Sciences, Inc. BML-SE456
Procedure, shortened: (§1)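 Fluorimetric deacetylase kit; 0.3 μg human recombinant enzyme with 10 μM Fluor de Lys-SIRT1 substrate, 60 min at 30° C, then developer 30 min. Fluorescence read at Ex 360/Em 460; IC50 from 5-fold compound dilutions. HDAC1 and HDAC6 run by the same protocol.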

human recombinant HDAC6 = target: T2, human recombinant HDAC6 (Homo sapiens, UniProt Q9UBN7); experiment: In vitro HDAC enzyme activity inhibition assay, HDAC6 (HDAC Fluorimetric Drug Discovery Kit); assay type: biochemical; conditions: for HDAC6 Selectivity (fold): HDAC6 versus HDAC1; for IC50: human recombinant HDAC6, same protocol as the HDAC1 test
T2 construct: purchased Calbiochem Inc. 382180
T2 sequence (Q9UBN7 1-1215): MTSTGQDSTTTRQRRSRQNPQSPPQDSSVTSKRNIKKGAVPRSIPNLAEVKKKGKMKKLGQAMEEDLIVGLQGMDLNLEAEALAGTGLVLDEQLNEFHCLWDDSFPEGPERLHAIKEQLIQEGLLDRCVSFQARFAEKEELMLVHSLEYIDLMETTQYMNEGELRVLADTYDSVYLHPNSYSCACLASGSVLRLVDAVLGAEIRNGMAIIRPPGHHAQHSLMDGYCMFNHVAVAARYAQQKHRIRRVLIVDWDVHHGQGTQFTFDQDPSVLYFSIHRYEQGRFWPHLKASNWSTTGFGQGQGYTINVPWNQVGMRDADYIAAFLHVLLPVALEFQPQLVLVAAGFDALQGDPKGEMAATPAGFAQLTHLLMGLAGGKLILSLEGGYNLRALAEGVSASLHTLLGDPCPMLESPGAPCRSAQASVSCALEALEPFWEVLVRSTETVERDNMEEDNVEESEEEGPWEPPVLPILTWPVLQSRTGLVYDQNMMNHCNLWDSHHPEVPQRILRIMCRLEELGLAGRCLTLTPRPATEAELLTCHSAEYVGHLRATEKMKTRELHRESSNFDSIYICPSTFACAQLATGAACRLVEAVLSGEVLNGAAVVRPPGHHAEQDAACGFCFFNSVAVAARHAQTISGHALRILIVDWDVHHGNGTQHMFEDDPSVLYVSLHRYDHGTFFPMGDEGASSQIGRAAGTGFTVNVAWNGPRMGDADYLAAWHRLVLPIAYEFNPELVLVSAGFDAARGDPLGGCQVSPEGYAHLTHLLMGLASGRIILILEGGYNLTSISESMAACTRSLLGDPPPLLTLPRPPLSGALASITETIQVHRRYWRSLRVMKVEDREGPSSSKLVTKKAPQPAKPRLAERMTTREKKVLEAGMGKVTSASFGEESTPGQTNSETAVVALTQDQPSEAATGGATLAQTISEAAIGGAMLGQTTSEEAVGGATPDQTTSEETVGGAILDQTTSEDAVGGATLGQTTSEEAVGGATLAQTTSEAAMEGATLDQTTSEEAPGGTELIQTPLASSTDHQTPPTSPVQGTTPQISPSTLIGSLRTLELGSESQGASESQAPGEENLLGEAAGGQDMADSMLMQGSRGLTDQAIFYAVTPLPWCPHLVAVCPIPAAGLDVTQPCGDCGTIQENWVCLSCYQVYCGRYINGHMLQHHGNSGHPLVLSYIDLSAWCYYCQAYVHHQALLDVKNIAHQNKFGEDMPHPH
Procedure, shortened: as §1

T1 sequence (Q13547 whole entry): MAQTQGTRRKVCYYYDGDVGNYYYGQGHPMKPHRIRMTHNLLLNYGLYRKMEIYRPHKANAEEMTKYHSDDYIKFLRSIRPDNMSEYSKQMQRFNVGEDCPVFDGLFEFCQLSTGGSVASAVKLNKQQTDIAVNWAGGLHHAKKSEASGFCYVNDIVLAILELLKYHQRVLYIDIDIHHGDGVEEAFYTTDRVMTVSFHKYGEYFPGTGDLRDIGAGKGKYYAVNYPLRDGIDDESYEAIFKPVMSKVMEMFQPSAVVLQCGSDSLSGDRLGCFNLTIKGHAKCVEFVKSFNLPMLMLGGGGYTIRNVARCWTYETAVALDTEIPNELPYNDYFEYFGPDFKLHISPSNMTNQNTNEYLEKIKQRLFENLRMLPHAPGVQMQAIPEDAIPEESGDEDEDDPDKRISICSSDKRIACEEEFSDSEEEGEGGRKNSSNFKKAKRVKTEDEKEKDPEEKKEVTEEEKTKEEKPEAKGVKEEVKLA

## O=C(C1COC1)N1CC(C(=O)N(Cc2cn3ccc(-c4nnc(C(F)F)o4)cc3n2)c2ccccc2)C1 [Compound 4171, N-((7-(5-(difluoromethyl)-1,3,4-oxadiazol-2-yl)imidazo[1,2-a]pyridin-2-yl)methyl)-1-(oxetan-3-carbonyl)-N-phenylazetidine-3-carboxamide]
Human recombinant HDAC1
  IC50: > 50000 nM
Human recombinant HDAC6
  HDAC6 Selectivity (fold): 141 fold
  IC50: 355 nM

## O=C(C1CN(C(=O)C(F)(F)F)C1)N(Cc1cn2ccc(-c3nnc(C(F)F)o3)cc2n1)c1ccccc1 [Compound 4172, N-((7-(5-(difluoromethyl)-1,3,4-oxadiazol-2-yl)imidazo[1,2-a]pyridin-2-yl)methyl)-N-phenyl-1-(2,2,2-trifluoroacetyl) azetidine-3-carboxamide]
Human recombinant HDAC1
  IC50: > 50000 nM
Human recombinant HDAC6
  HDAC6 Selectivity (fold): 184 fold
  IC50: 272 nM

## CS(=O)(=O)N1CC(C(=O)N(Cc2cn3ccc(-c4nnc(C(F)F)o4)cc3n2)c2ccccc2)C1 [Compound 4173, N-((7-(5-(difluoromethyl)-1,3,4-oxadiazol-2-yl)imidazo[1,2-a]pyridin-2-yl)methyl)-1-(methylsulfonyl)-N-phenylazetidine-3-carboxamide]
Human recombinant HDAC1
  IC50: > 50000 nM
Human recombinant HDAC6
  HDAC6 Selectivity (fold): 160 fold
  IC50: 312 nM

## COC(=O)N1CC(C(=O)N(Cc2cn3ccc(-c4nnc(C(F)F)o4)cc3n2)c2ccccc2)C1 [Compound 4174, methyl 3-(((7-(5-(difluoromethyl)-1,3,4-oxadiazol-2-yl)imidazo[1,2-a]pyridin-2-yl)methyl)(phenyl)carbamoyl) azetidine-1-carboxylate]
Human recombinant HDAC1
  IC50: > 50000 nM
Human recombinant HDAC6
  HDAC6 Selectivity (fold): 168 fold
  IC50: 298 nM

## CN(C)C(=O)N1CC(C(=O)N(Cc2cn3ccc(-c4nnc(C(F)F)o4)cc3n2)c2ccccc2)C1 [Compound 4175, N3-((7-(5-(difluoromethyl)-1,3,4-oxadiazol-2-yl)imidazo[1,2-a]pyridin-2-yl)methyl)-N1,N1-dimethyl-N3-phenylazetidine-1,3-dicarboxamide]
Human recombinant HDAC1
  IC50: > 50000 nM
Human recombinant HDAC6
  HDAC6 Selectivity (fold): 131 fold
  IC50: 381 nM

## O=C(C1CN(c2ccccn2)C1)N(Cc1cn2ccc(-c3nnc(C(F)F)o3)cc2n1)c1ccccc1 [Compound 4176, N-((7-(5-(difluoromethyl)-1,3,4-oxadiazol-2-yl)imidazo[1,2-a]pyridin-2-yl)methyl)-N-phenyl-1-(pyridin-2-yl) azetidine-3-carboxamide]
Human recombinant HDAC1
  IC50: > 50000 nM
Human recombinant HDAC6
  HDAC6 Selectivity (fold): 199 fold
  IC50: 251 nM

## O=C(C1CN(c2ncccn2)C1)N(Cc1cn2ccc(-c3nnc(C(F)F)o3)cc2n1)c1ccccc1 [Compound 4177, N-((7-(5-(difluoromethyl)-1,3,4-oxadiazol-2-yl)imidazo[1,2-a]pyridin-2-yl)methyl)-N-phenyl-1-(pyrimidin-2-yl) azetidine-3-carboxamide]
Human recombinant HDAC1
  IC50: > 50000 nM
Human recombinant HDAC6
  HDAC6 Selectivity (fold): 205 fold
  IC50: 244 nM

## CN1CC(C(=O)N(Cc2cn3ccc(-c4nnc(C(F)F)o4)cc3n2)c2cccc(F)c2)C1 [Compound 4188, N-((7-(5-(difluoromethyl)-1,3,4-oxadiazol-2-yl)imidazo[1,2-a]pyridin-2-yl)methyl)-N-(3-fluorophenyl)-1-methylazetidine-3-carboxamide]
Human recombinant HDAC1
  IC50: > 50000 nM
Human recombinant HDAC6
  HDAC6 Selectivity (fold): 134 fold
  IC50: 373 nM

## CCN1CC(C(=O)N(Cc2cn3ccc(-c4nnc(C(F)F)o4)cc3n2)c2cccc(F)c2)C1 [Compound 4189, N-((7-(5-(difluoromethyl)-1,3,4-oxadiazol-2-yl)imidazo[1,2-a]pyridin-2-yl)methyl)-1-ethyl-N-(3-fluorophenyl) azetidine-3-carboxamide]
Human recombinant HDAC1
  IC50: > 50000 nM
Human recombinant HDAC6
  HDAC6 Selectivity (fold): 315 fold
  IC50: 159 nM

## CC(C)N1CC(C(=O)N(Cc2cn3ccc(-c4nnc(C(F)F)o4)cc3n2)c2cccc(F)c2)C1 [Compound 4190, N-((7-(5-(difluoromethyl)-1,3,4-oxadiazol-2-yl)imidazo[1,2-a]pyridin-2-yl)methyl)-N-(3-fluorophenyl)-1-isopropylazetidine-3-carboxamide]
Human recombinant HDAC1
  IC50: > 50000 nM
Human recombinant HDAC6
  HDAC6 Selectivity (fold): 395 fold
  IC50: 126 nM

## CC(CO)N1CC(C(=O)N(Cc2cn3ccc(-c4nnc(C(F)F)o4)cc3n2)c2cccc(F)c2)C1 (stereo not drawn) [Compound 4191, N-((7-(5-(difluoromethyl)-1,3,4-oxadiazol-2-yl)imidazo[1,2-a]pyridin-2-yl)methyl)-N-(3-fluorophenyl)-1-(1-hydroxypropan-2-yl) azetidine-3-carboxamide]
Human recombinant HDAC1
  IC50: > 50000 nM
Human recombinant HDAC6
  HDAC6 Selectivity (fold): 373 fold
  IC50: 134 nM

## O=C(C1CN(C2CCC2)C1)N(Cc1cn2ccc(-c3nnc(C(F)F)o3)cc2n1)c1cccc(F)c1 [Compound 4192, 1-cyclobutyl-N-((7-(5-(difluoromethyl)-1,3,4-oxadiazol-2-yl)imidazo[1,2-a]pyridin-2-yl)methyl)-N-(3-fluorophenyl) azetidine-3-carboxamide]
Human recombinant HDAC1
  IC50: > 50000 nM
Human recombinant HDAC6
  HDAC6 Selectivity (fold): 452 fold
  IC50: 111 nM

## O=C(C1CN(C2COC2)C1)N(Cc1cn2ccc(-c3nnc(C(F)F)o3)cc2n1)c1cccc(F)c1 [Compound 4193, N-((7-(5-(difluoromethyl)-1,3,4-oxadiazol-2-yl)imidazo[1,2-a]pyridin-2-yl)methyl)-N-(3-fluorophenyl)-1-(oxetan-3-yl) azetidine-3-carboxamide]
Human recombinant HDAC1
  IC50: > 50000 nM
Human recombinant HDAC6
  HDAC6 Selectivity (fold): 361 fold
  IC50: 139 nM

## O=C(C1CN(C2CCCCC2)C1)N(Cc1cn2ccc(-c3nnc(C(F)F)o3)cc2n1)c1cccc(F)c1 [Compound 4194, 1-cyclohexyl-N-((7-(5-(difluoromethyl)-1,3,4-oxadiazol-2-yl)imidazo[1,2-a]pyridin-2-yl)methyl)-N-(3-fluorophenyl) azetidine-3-carboxamide]
Human recombinant HDAC1
  IC50: > 50000 nM
Human recombinant HDAC6
  HDAC6 Selectivity (fold): 379 fold
  IC50: 132 nM

## O=C(C1CN(C2CCOCC2)C1)N(Cc1cn2ccc(-c3nnc(C(F)F)o3)cc2n1)c1cccc(F)c1 [Compound 4195, N-((7-(5-(difluoromethyl)-1,3,4-oxadiazol-2-yl)imidazo[1,2-a]pyridin-2-yl)methyl)-N-(3-fluorophenyl)-1-(tetrahydro-2H-pyran-4-yl) azetidine-3-carboxamide]
Human recombinant HDAC1
  IC50: > 50000 nM
Human recombinant HDAC6
  HDAC6 Selectivity (fold): 261 fold
  IC50: 192 nM

## O=C(C1CN(C2CCC(F)(F)CC2)C1)N(Cc1cn2ccc(-c3nnc(C(F)F)o3)cc2n1)c1cccc(F)c1 [Compound 4196, 1-(4,4-Difluorocyclohexyl)-N-((7-(5-(difluoromethyl)-1,3,4-oxadiazol-2-yl)imidazo[1,2-a]pyridin-2-yl)methyl)-N-(3-fluorophenyl) azetidine-3-carboxamide]
Human recombinant HDAC1
  IC50: > 50000 nM
Human recombinant HDAC6
  HDAC6 Selectivity (fold): 276 fold
  IC50: 181 nM

## CC(=O)N1CC(C(=O)N(Cc2cn3ccc(-c4nnc(C(F)F)o4)cc3n2)c2cccc(F)c2)C1 [Compound 4197, 1-acetyl-N-((7-(5-(difluoromethyl)-1,3,4-oxadiazol-2-yl)imidazo[1,2-a]pyridine-2-yl)methyl)-N-(3-fluorophenyl) azetidine-3-carboxamide]
Human recombinant HDAC1
  IC50: > 50000 nM
Human recombinant HDAC6
  HDAC6 Selectivity (fold): 207 fold
  IC50: 242 nM

## CCC(=O)N1CC(C(=O)N(Cc2cn3ccc(-c4nnc(C(F)F)o4)cc3n2)c2cccc(F)c2)C1 [Compound 4198]
Human recombinant HDAC1
  IC50: > 50000 nM
Human recombinant HDAC6
  HDAC6 Selectivity (fold): 271 fold
  IC50: 185 nM

## O=C(CO)N1CC(C(=O)N(Cc2cn3ccc(-c4nnc(C(F)F)o4)cc3n2)c2cccc(F)c2)C1 [Compound 4199, N-((7-(5-(difluoromethyl)-1,3,4-oxadiazol-2-yl)imidazo[1,2-a]pyridin-2-yl)methyl)-N-(3-fluorophenyl)-1-(2-hydroxyacetyl) azetidine-3-carboxamide]
Human recombinant HDAC1
  IC50: > 50000 nM
Human recombinant HDAC6
  HDAC6 Selectivity (fold): 200 fold
  IC50: 250 nM
